Experimental data published in patent US20250026748A1, “N-(5-SUBSTITUTED-[(1,3,4-THIADIAZOLYL) OR (THIAZOLYL)])(SUBSTITUTED)CARBOXAMIDE COMPOUNDS AND USE THEREOF FOR INHIBITING HUMAN POLYMERASE THETA” (Repare Therapeutics Inc., priority 2021, published 2025).

The compounds below were run against PolQ ATPase enzyme (1-894) (Homo sapiens (Human), UniProt O75417) (assay: Polθ ATPase enzymatic assay (0.5 nM enzyme concentration), ADP-Glo). Conditions: average IC50; 0.5 nM PolQ ATPase enzyme (1-894).
Type: biochemical
Method in brief: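 Enzyme (0.5 nM) pre-incubated 15 min at rt with 10-point inhibitor series in 50 mM Tris pH 7.5, 10% glycerol, 5 mM DTT, 10 mM MgCl2, 0.1 mg/ml BSA; reaction started with 20 nM fork DNA and 100 μM ATP, run 180 min at rt. ADP-Glo luminescence; IC50 from 4-parameter variable-slope fit.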

Sequence of PolQ ATPase enzyme (1-894) (O75417 1-894): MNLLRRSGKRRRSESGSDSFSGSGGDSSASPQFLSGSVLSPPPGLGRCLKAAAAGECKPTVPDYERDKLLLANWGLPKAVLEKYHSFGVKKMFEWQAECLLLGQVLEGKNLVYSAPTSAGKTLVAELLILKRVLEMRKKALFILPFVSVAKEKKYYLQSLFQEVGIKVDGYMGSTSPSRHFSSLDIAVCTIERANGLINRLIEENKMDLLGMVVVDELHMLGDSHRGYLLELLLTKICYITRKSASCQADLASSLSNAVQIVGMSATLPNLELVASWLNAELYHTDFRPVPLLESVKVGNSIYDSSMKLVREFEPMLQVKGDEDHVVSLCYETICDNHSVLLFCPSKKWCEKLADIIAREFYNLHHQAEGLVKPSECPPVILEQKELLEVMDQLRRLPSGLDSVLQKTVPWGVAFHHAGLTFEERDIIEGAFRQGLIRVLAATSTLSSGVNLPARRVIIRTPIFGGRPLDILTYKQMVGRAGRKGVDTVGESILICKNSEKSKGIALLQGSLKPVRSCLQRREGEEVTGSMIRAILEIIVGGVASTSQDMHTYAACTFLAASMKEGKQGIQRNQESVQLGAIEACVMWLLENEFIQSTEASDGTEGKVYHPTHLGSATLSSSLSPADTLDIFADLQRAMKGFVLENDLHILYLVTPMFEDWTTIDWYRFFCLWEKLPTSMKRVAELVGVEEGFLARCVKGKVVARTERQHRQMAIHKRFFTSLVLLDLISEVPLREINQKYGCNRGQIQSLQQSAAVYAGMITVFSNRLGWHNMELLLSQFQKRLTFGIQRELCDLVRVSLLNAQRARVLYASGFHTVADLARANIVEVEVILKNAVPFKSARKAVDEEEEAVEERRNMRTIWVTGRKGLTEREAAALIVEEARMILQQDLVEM

Row | Compound | IC50 [nM]
1 | COc1cnc(C(F)F)cc1-c1cc(N2C(=O)[C@H]3CC[C@@H]2C3)ncc1C(=O)Nc1nnc(C#CC2CC2)s1 [Compound 365] | 100
2 | COc1cnc(C(F)F)cc1-c1cc(N2CCN(C(C)=O)CC2)ccc1C(=O)Nc1nnc(C#CC2CC2)s1 [Compound 366] | 3
3 | COc1cnc(C(F)F)cc1-c1cc(N2C(=O)[C@@H]3CC[C@H]2C3)ncc1C(=O)Nc1nnc(C#CC2CC2)s1 [Compound 368] | 7.1
4 | C#C[C@H]1CC1c1nnc(NC(=O)c2ccc(-c3nnc(C)o3)cc2-c2cc(C(F)F)ncc2OC)s1 (some centres unmarked) [Compound 373] | 4.6
5 | COc1cnc(C(F)F)cc1-c1cc(-c2nnc(C)o2)ccc1C(=O)Nc1nc(C#CC2CC2)cs1 [Compound 374] | > 100
6 | COc1cnc(C(F)F)cc1-c1cc(-c2nnc(C)o2)ccc1C(=O)Nc1nc(C#N)c(C#CC2CC2)s1 [Compound 376] | 3
7 | COc1cnc(C(F)F)cc1-c1cc(N2CCOC[C@@H]2C)ncc1C(=O)Nc1nnc(C#CC2CC2)s1 [Compound 377] | > 100
8 | COc1cnc(C(F)F)cc1-c1cc(C#CC2CCOCC2)ncc1C(=O)Nc1nnc(C#Cc2cc(C)[nH]n2)s1 [Compound 378] | < 0.25
9 | COc1cnc(C(F)F)cc1-c1cc(N2CCOC[C@H]2C)ncc1C(=O)Nc1nnc(C#CC2CC2)s1 [Compound 379] | 18
10 | COc1cnc(C(F)F)cc1-c1cc(N2CC3CC(C3)C2=O)ncc1C(=O)Nc1nnc(C#CC2CC2)s1 [Compound 381] | < 0.25
11 | COc1cnc(C(F)F)cc1-c1cc(N2CC[C@H]3C[C@H]3C2=O)ncc1C(=O)Nc1nnc(C#CC2CC2)s1 [Compound 383] | < 0.25
12 | COc1cnc(C(F)F)cc1-c1cc(N2CC[C@@H]3C[C@@H]3C2=O)ncc1C(=O)Nc1nnc(C#CC2CC2)s1 [Compound 384] | < 0.25
13 | COc1cnc(C(F)F)cc1-c1cc(N2CCN(CC3CC3)CC2=O)ncc1C(=O)Nc1nnc(C#CC2CC2)s1 [Compound 386] | < 0.25
14 | COc1cnc(C(F)F)cc1-c1cc(N2CC3CC3CC2=O)ncc1C(=O)Nc1nnc(C#CC2CC2)s1 (centres unmarked) [Compound 388] | < 0.25
15 | COc1cnc(C(F)F)cc1-c1cc(N2CC(C)CCC2=O)ncc1C(=O)Nc1nnc(C#CC2CC2)s1 (centres unmarked) [Compound 389] | < 0.25
16 | COc1cnc(C(F)F)cc1-c1cc(N2CCCCCC2=O)ncc1C(=O)Nc1nnc(C#CC2CC2)s1 [Compound 394] | < 0.25
17 | COc1cnc(C(F)F)cc1-c1cc(N2CCC3(CCC3)CC2=O)ncc1C(=O)Nc1nnc(C#CC2CC2)s1 [Compound 395] | 0.25
18 | C#CC1CC1c1nnc(NC(=O)c2ccc(N3CCOCC3=O)cc2-c2cc(C(F)F)ncc2OC)s1 (centres unmarked) [Compound 396] | 10
19 | C#CC1CC1c1nnc(NC(=O)c2ccc(N3CCOCC3=O)cc2-c2cc(C(F)F)ncc2OC)s1 (centres unmarked) [Compound 397] | 0.39
20 | COc1cnc(C(F)F)cc1-c1cc(N2C(=O)COCC2C)ncc1C(=O)Nc1nnc(C#CC2CC2)s1 (centres unmarked) [Compound 400] | 0.46
21 | COc1cnc(C(F)F)cc1-c1cc(Cc2nnc(C)o2)ncc1C(=O)Nc1ncc(C#CC2CC2)s1 [Compound 401] | < 0.25
22 | [2H]C([2H])([2H])Oc1cnc(C(F)F)cc1-c1cc(-c2nnc(C)o2)ccc1C(=O)Nc1nnc(C#CC2CC2)s1 [Compound 406] | 2.8
23 | COc1cnc(C(F)F)cc1-c1cc(N2CCN3CCCC3C2=O)ncc1C(=O)Nc1nnc(C#CC2CC2)s1 (centres unmarked) [Compound 415] | 0.25
24 | COc1cnc(C(F)F)cc1-c1cc(-c2nnc(NC(C)=O)o2)ccc1C(=O)Nc1nnc(C#CC2CC2)s1 [Compound 418] | 1.6
25 | COc1cnc(C(F)F)cc1-c1cc(N2CC3(CCC2=O)CC3)ncc1C(=O)Nc1nnc(C#CC2CC2)s1 [Compound 426] | 0.39
26 | Cc1nnc(-n2cc(-c3cc(C(F)(F)F)ccc3Cl)c(C(=O)Nc3nnc(C#CC4CC4)s3)cc2=O)o1 [Compound 429] | < 0.25
27 | C#C[C@H]1CC1c1nnc(NC(=O)c2cnc(-n3ccc(C)cc3=O)cc2-c2cc(C(F)F)ncc2OC)s1 (some centres unmarked) [Compound 431] | < 0.25

Continued, values first:

Row | IC50 [nM] | Compound
28 | 0.27 | COc1cnc(C(F)F)cc1-c1cc(N2CCN(C)C(C)(C)C2=O)ncc1C(=O)Nc1nnc(C#CC2CC2)s1 [Compound 367]
29 | 8.1 | COc1cnc(C(F)F)cc1-c1cc(-c2cc(C#N)n(C)n2)ncc1C(=O)Nc1nnc(C#CC2CC2)s1 [Compound 371]
30 | 0.39 | COc1cnc(C(F)F)cc1-c1cc(-c2cnn(C3COC3)c2)ccc1C(=O)Nc1nnc(C#CC2CC2)s1 [Compound 372]
31 | < 0.25 | [2H]C([2H])([2H])Oc1cnc(C(F)F)cc1-c1cc(-c2ccn(C)n2)ncc1C(=O)Nc1nnc(C#CC2CC2)s1 [Compound 375]
32 | 11 | COc1cnc(C(F)F)cc1-c1cc(N2CC(C)(C)CC2=O)ncc1C(=O)Nc1nnc(C#CC2CC2)s1 [Compound 380]
33 | < 0.25 | COc1cnc(C(F)F)cc1-c1cc(N2CCN(C(=O)OC(C)C)CC2=O)ncc1C(=O)Nc1nnc(C#CC2CC2)s1 [Compound 382]
34 | < 0.25 | COc1cnc(C(F)F)cc1-c1cc(-n2ccc(C)cc2=O)ncc1C(=O)Nc1nnc(C#CC2CC2)s1 [Compound 387, N-(5-(cyclopropylethynyl)-1,3,4-thiadiazol-2-yl)-2″-(difluoromethyl)-5″-methoxy-4-methyl-2-oxo-2H-[1,2′:4′,4″-terpyridine]-5′-carboxamide]
35 | < 0.25 | COc1cnc(C(F)F)cc1-c1cc(N2CCCC(C)C2=O)ncc1C(=O)Nc1nnc(C#CC2CC2)s1 (centres unmarked) [Compound 390]
36 | > 100 | COc1cnc(C(F)F)cc1-c1nc(-c2nnc(C)o2)ccc1C(=O)Nc1nnc(C#CC2CC2)s1 [Compound 391]
37 | < 0.25 | COc1cnc(C(F)F)cc1-c1cc(-c2cnn(S(C)(=O)=O)c2)ncc1C(=O)Nc1nnc(C#CC2CC2)s1 [Compound 393]
38 | 2.1 | COc1cnc(C(F)F)cc1-c1cc(-c2cnn(C3CCNCC3)c2)ncc1C(=O)Nc1nnc(C#CC2CC2)s1 [Compound 398]
39 | 1.5 | COc1cnc(C(F)F)cc1-c1cc(-c2cnn(C3CCN(C)CC3)c2)ncc1C(=O)Nc1nnc(C#CC2CC2)s1 [Compound 399]
40 | 0.88 | COc1cnc(Cl)nc1-c1cc(-c2nnc(C)o2)ccc1C(=O)Nc1nnc(C#CC2CC2)s1 [Compound 402]
41 | < 0.25 | O=C(Nc1nnc(C#CC2CC2)s1)c1cnc(-n2ccccc2=O)cc1-c1cc(C(F)F)ncc1Cl [Compound 403]
42 | < 0.25 | COc1cnc(C(F)F)cc1-c1cc(-c2nccn2C)ncc1C(=O)Nc1nnc(C#CC2CC2)s1 [Compound 404]
43 | < 0.25 | COc1cnc(C(F)F)cc1-c1cc(-c2cncn2C)ncc1C(=O)Nc1nnc(C#CC2CC2)s1 [Compound 405]
44 | < 0.25 | COc1cnc(Cl)nc1-c1cc(CC#N)ccc1C(=O)Nc1nnc(C#CC2CC2)s1 [Compound 407]
45 | 1.4 | COc1cnc(C(F)F)cc1-c1cc(-c2nnc(N(C)C)o2)ccc1C(=O)Nc1nnc(C#CC2CC2)s1 [Compound 408]
46 | < 0.25 | COc1cnc(C(F)F)cc1-c1cc(-c2oc(C)nc2C)ncc1C(=O)Nc1nnc(C#CC2CC2)s1 [Compound 409]

Row | IC50 [nM] | Compound
47 | 0.31 | COc1cnc(C(F)F)cc1-c1cc(-c2cnc(C)o2)ncc1C(=O)Nc1nnc(C#CC2CC2)s1 [Compound 410]
48 | 0.37 | COc1cnc(C(F)F)cc1-c1cc(-c2ccn(C)c2)ncc1C(=O)Nc1nnc(C#CC2CC2)s1 [Compound 411]
49 | 0.25 | COc1cnc(C(F)F)cc1-c1cc(-c2cn(C)c(C)n2)ccc1C(=O)Nc1nnc(C#CC2CC2)s1 [Compound 412]
50 | < 0.25 | COc1cnc(C(F)F)cc1-c1cc(-n2cc(F)ccc2=O)ncc1C(=O)Nc1nnc(C#CC2CC2)s1 [Compound 413]
51 | < 0.25 | COc1cnc(C(F)F)cc1-c1cc(-n2cc(F)c(C)cc2=O)ncc1C(=O)Nc1nnc(C#CC2CC2)s1 [Compound 414]
52 | 0.69 | COc1cnc(C(F)F)cc1-c1cc(-c2cn(C)nc2F)ncc1C(=O)Nc1nnc(C#CC2CC2)s1 [Compound 416]
53 | 3.7 | COc1cnc(Cl)nc1-c1cc(-c2ccn(C)n2)ncc1C(=O)Nc1nnc(C#CC2CC2)s1 [Compound 417]
54 | 0.72 | COc1cnc(C(F)F)cc1-c1cc(-c2cnn(CC#N)c2)ncc1C(=O)Nc1nnc(C#CC2CC2)s1 [Compound 419]
55 | 0.31 | COc1cnn(-c2cc(-c3cc(C(F)F)ncc3OC)c(C(=O)Nc3nnc(C#CC4CC4)s3)cn2)c(=O)c1 [Compound 420]
56 | < 0.25 | COc1cnc(C(F)F)cc1-c1cc(-n2ncccc2=O)ncc1C(=O)Nc1nnc(C#CC2CC2)s1 [Compound 421]
57 | 0.54 | COc1cnc(C(F)F)cc1-c1cc(-c2cccc(C)n2)ncc1C(=O)Nc1nnc(C#CC2CC2)s1 [Compound 422]
58 | 0.27 | COCCn1ccc(-c2cc(-c3cc(C(F)F)ncc3OC)c(C(=O)Nc3nnc(C#CC4CC4)s3)cn2)n1 [Compound 427]
59 | < 0.25 | COc1cnc(C(F)F)cc1-c1cc(-c2noc(C)n2)ncc1C(=O)Nc1nnc(C#CC2CC2)s1 [Compound 428]
60 | < 0.25 | COc1cnc(C(F)F)cc1-c1cc(-c2nc(C)co2)ncc1C(=O)Nc1nnc(C#CC2CC2)s1 [Compound 430]
61 | < 0.25 | COc1cnc(C(F)F)cc1-c1cc(N2CCN(C)C3(CC3)C2=O)ncc1C(=O)Nc1nnc(C#CC2CC2)s1 [Compound 432, N-(5-(cyclopropylethynyl)-1,3,4-thiadiazol-2-yl)-2′-(difluoromethyl)-5′-methoxy-6-(4-methyl-8-oxo-4,7-diazaspiro[2.5]octan-7-yl)-[4,4′-bipyridine]-3-carboxamide]
62 | 6.2 | CCc1nn(C)cc1-c1cc(-c2ccn(C)n2)ncc1C(=O)Nc1nnc(C#CC2CC2)s1 [Compound 433]
63 | < 0.25 | COc1ccn(-c2cc(-c3cc(C(F)F)ncc3OC)c(C(=O)Nc3nnc(C#CC4CC4)s3)cn2)c(=O)c1 [Compound 434]
64 | < 0.25 | COc1cnc(C(F)F)cc1-c1cc(-n2ncc(C)cc2=O)ncc1C(=O)Nc1nnc(C#CC2CC2)s1 [Compound 435]
65 | < 0.25 | COc1cnc(C(F)F)cc1-c1cc(-c2ccc(C)cn2)ncc1C(=O)Nc1nnc(C#CC2CC2)s1 [Compound 436]
